Literature values in patent US20200306231A1, “ORAL HYPOGLYCEMIC AGENTS AS FOOD ADDITIVES AND SUPPLEMENTS” (priority 2017, published 2020).

Experiments:
[1] = in vivo
[2] = neoadjuvant chemotherapy; type 2 diabetes patients taking metformin
[3] = lung cancer after chemotherapy; type 2 diabetics taking metformin
[4] = type 2 diabetes population; compared with other anti-diabetes drugs
[5] = type 2 diabetes patients followed for 10 years; taking metformin compared with not taking metformin
[6] = type 2 diabetes
[7] = system: nematodes
[8] = ovarian cancer after chemotherapy, type 2 diabetes
[9] = DPPOS
[10] = system: mouse model
[11] = another study

| Structure (SMILES) | side effect known to be caused [1] | chance of having a complete response (no residual cancer found during surgery) [2] [%] | overall survival rate [3] [months] | progression free survival [3] [months] | risk of cardiovascular disease [4] | lower risk of developing any type of cancer [5] [%] | risk of developing colorectal cancer, greater for those not taking metformin versus those taking metformin [6] [%] | survival greater for those taking metformin versus not taking [6] [%] | lifespan [7] | 5-year overall survival rate ([8]; metformin users) [%] | progression free survival at 5 years ([8]; taking metformin) [%] | safety and tolerability [9] | weight loss [9] | lifespan and health span [10] | risk reduction for developing prostate cancer (type 2 diabetics taking metformin compared with not taking) | overall survival rate greater, taking metformin versus not taking (type 2 diabetics who have prostate cancer) [%] | improved survival with metformin use [11] [%] |
| --- | --- | --- | --- | --- | --- | --- | --- | --- | --- | --- | --- | --- | --- | --- | --- | --- | --- |
| COc1ccc2cc3[n+](cc2c1OC)CCc1cc2c(cc1-3)OCO2 [berberine] | constipation | – | – | – | – | – | – | – | – | – | – | – | – | – | – | – | – |
| CN(C)C(=N)N=C(N)N [metformin] | diarrhea | 24 | 20 | 8.4 | decreased risk of cardiovascular disease | 54 | 200 | 34 | extends the lifespan | 63 | 51 | safe and well tolerated | moderate but durable weight loss | extends both lifespan and health span | no risk reduction | 45 | 24 |
